In patent publication US10548877B2, “Aromatic ring compound” (TAKEDA PHARMACEUTICAL COMPANY LIMITED, priority 2016, dated 2020):

Target: T1, human M1 receptor (hCHRM1) (Homo sapiens, UniProt P11229)
T1 construct: expressed in transfected cells
T1 sequence (P11229 1-460): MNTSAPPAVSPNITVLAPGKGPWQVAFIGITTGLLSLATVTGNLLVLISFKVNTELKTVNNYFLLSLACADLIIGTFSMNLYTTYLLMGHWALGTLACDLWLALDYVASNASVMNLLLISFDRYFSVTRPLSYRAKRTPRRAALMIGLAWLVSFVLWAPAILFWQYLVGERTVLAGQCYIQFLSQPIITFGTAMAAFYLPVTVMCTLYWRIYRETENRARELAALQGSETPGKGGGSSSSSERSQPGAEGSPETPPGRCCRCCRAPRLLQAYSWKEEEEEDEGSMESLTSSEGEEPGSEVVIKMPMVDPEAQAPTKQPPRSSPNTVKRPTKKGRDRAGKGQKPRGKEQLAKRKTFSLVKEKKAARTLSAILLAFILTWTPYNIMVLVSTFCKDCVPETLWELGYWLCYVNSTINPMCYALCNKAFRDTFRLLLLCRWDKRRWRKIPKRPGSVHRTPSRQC
Experiment: Measurement of M1 receptor positive allosteric modulator (M1PAM) activity (calcium fluorescence, Fluo-4)
Format: cell-based
Conditions: for EC50: inflection point of concentration-dependent curve, CHO-K1 cells stably expressing hCHRM1, in presence of acetylcholine at EC20 (final 0.8-1.0 nM), read-out: IP value; for activity (%) at 10 μM: test compound 10 μM with acetylcholine at EC20, 100% = 1 μM acetylcholine, 0% = DMSO, CHO-K1 cells expressing hCHRM1
Procedure: Measurement of M1 Receptor Positive Allosteric Modulator (M1PAM) Activity
The activity of a test compound in the presence of acetylcholine at EC20 concentration (final concentration 0.8-1.0 nM), which affords an action corresponding to about 20% of the maximum activity, was measured as PAM activity. The method is as follows. CHO-K1 cells stably expressing a human M1 receptor (hCHRM1) were plated on a 384-well black clear bottom plate (BD Falcon) at 5,000 cells/well, and cultured in an incubator at 37° C., 5% CO2 for 1 day. The medium in the cell plate was removed, and assay buffer A containing a calcium indicator (Recording medium (DOJINDO LABORATORIES), 0.1% BSA (Wako Pure Chemical Industries, Ltd.), 2.5 μg/mL Fluo-4 AM (DOJINDO LABORATORIES), 0.08% Pluronic F127 (DOJINDO LABORATORIES) and 1.25 mM probenecid (DOJINDO LABORATORIES) were added at 30 μL/well. The cells were left standing in the incubator at 37° C., 5% CO2 for 30 min, and further left standing at room temperature for 30 min. A test compound prepared by diluting with assay buffer B (HBSS (Invitrogen), 20 mM HEPES (Invitrogen), 0.1% BSA) containing 3.2-4.0 nM acetylcholine was added at 10 μL/well, and the fluorescence was measured by FDSS/pcell (Hamamatsu Photonics K.K.) for 1 min every for 1 second. With the definition that the amount of change in the fluorescence on addition of acetylcholine (final concentration 1 μM) is 100% and that on addition of DMSO instead of a test compound is 0%, the activity (%) of the test compound was calculated, and the inflection point in the concentration-dependent curve of the test compound was calculated as IP values.

Compound | EC50 [nM] | activity (%) at 10 μM [%]
COc1c(C(=O)NCC2CCCO2)cc(Cc2ccc(-c3cn(C)nn3)cc2)c(C)c1C (stereo not shown) [Example 6, 2-methoxy-3,4-dimethyl-5-(4-(1-methyl-1H-1,2,3-triazol-4-yl)benzyl)-N-(tetrahydrofuran-2-ylmethyl)benzamide] | 23 | 107
COc1c(C(=O)N[C@H]2COCC[C@@H]2O)cc(Cc2ccc(-c3cn(C)nn3)cc2)c(C)c1C [Example 13, N-((3S,4S)-4-hydroxytetrahydro-2H-pyran-3-yl)-2-methoxy-3,4-dimethyl-5-(4-(1-methyl-1H-1,2,3-triazol-4-yl)benzyl)benzamide] | 9.4 | 102
CCOc1c(C(=O)N[C@H]2CCCC[C@@H]2O)cc(Cc2ccc(-c3cn(C)nn3)cc2)c(C)c1C [Example 15, 2-ethoxy-N-((1S,2S)-2-hydroxycyclohexyl)-3,4-dimethyl-5-(4-(1-methyl-1H-1,2,3-triazol-4-yl)benzyl)benzamide] | 14 | 100
Cc1c(Cc2ccc(-c3cn(C)nn3)cc2)cc(C(=O)N[C@H]2CCCC[C@@H]2O)c(OC(C)C)c1C [Example 16, N-((1S,2S)-2-hydroxycyclohexyl)-2-isopropoxy-3,4-dimethyl-5-(4-(1-methyl-1H-1,2,3-triazol-4-yl)benzyl)benzamide] | 30 | 99
Cc1c(Cc2ccc(-c3cn(C)nn3)cc2)cc(C(=O)N[C@H]2CCCC[C@@H]2O)c(OCC2CC2)c1C [Example 17, 2-(cyclopropylmethoxy)-N-((1S,2S)-2-hydroxycyclohexyl)-3,4-dimethyl-5-(4-(1-methyl-1H-1,2,3-triazol-4-yl)benzyl)benzamide] | 40 | 99
Cc1c(Cc2ccc(-c3cn(C)nn3)cc2)cc(C(=O)N[C@H]2CCCC[C@@H]2O)c(OC(F)F)c1C [Example 18, 2-(difluoromethoxy)-N-((1S,2S)-2-hydroxycyclohexyl)-3,4-dimethyl-5-(4-(1-methyl-1H-1,2,3-triazol-4-yl)benzyl)benzamide] | 27 | 97
COc1c(C(=O)N[C@H]2CCCC[C@@H]2O)cc(Cc2ccc(-c3ccn(C)n3)nc2)c(C)c1C [Example 21, N-((1S,2S)-2-hydroxycyclohexyl)-2-methoxy-3,4-dimethyl-5-((6-(1-methyl-1H-pyrazol-3-yl)pyridin-3-yl)methyl)benzamide] | 10 | 96
COc1c(C(=O)N[C@H]2CCOC[C@@H]2O)cc(Cc2ccc(-c3cn(C)nn3)cc2)c(C)c1C [Example 24, 1,5-anhydro-2,3-dideoxy-3-((2-methoxy-3,4-dimethyl-5-(4-(1-methyl-1H-1,2,3-triazol-4-yl)benzyl)benzoyl)amino)-L-threo-pentitol] | 2.6 | 95
COc1c(C(=O)N[C@H]2COCC[C@@H]2O)cc(Cc2ccc(-c3ccn(C)n3)cc2)c(C)c1C [Example 26, 1,5-anhydro-2,4-dideoxy-2-((2-methoxy-3,4-dimethyl-5-(4-(1-methyl-1H-pyrazol-3-yl)benzyl)benzoyl)amino)-L-threo-pentitol] | 31 | 99
COc1c(C(=O)N[C@H]2COCC[C@@H]2O)cc(Cc2ccc(-c3cn(C)nc3C)nc2)c(C)c1C [Example 28, 1,5-anhydro-2,4-dideoxy-2-((5-((6-(1,3-dimethyl-1H-pyrazol-4-yl)pyridin-3-yl)methyl)-2-methoxy-3,4-dimethylbenzoyl)amino)-L-threo-pentitol] | 20 | 100
COc1c(C(=O)N[C@H]2COCC[C@@H]2O)cc(Cc2ccc(-c3cn(C)nc3C)cc2)c(C)c1C [Example 29, 1,5-anhydro-2,4-dideoxy-2-((5-(4-(1,3-dimethyl-1H-pyrazol-4-yl)benzyl)-2-methoxy-3,4-dimethylbenzoyl)amino)-L-threo-pentitol] | 48 | 97

Other lines, results leading:

EC50 [nM] | activity (%) at 10 μM [%] | Compound
95 | 96 | COc1c(C(=O)N[C@H]2CCC[C@@H]2O)cc(Cc2ccc(-n3cccn3)cc2)c(C)c1C (relative stereo) [Example 2, N-(trans-2-hydroxycyclopentyl)-2-methoxy-3,4-dimethyl-5-(4-(1H-pyrazol-1-yl)benzyl)benzamide]
23 | 108 | COc1c(C(=O)N[C@H]2CCC[C@@H]2O)cc(Cc2ccc(-c3cn(C)nn3)cc2)c(C)c1C (relative stereo) [Example 4, N-(trans-2-hydroxycyclopentyl)-2-methoxy-3,4-dimethyl-5-(4-(1-methyl-1H-1,2,3-triazol-4-yl)benzyl)benzamide]
12 | 105 | COc1c(C(=O)N[C@H]2CCCC[C@@H]2O)cc(Cc2ccc(-c3cn(C)nn3)cc2)c(C)c1C (relative stereo) [Example 5, N-(trans-2-hydroxycyclohexyl)-2-methoxy-3,4-dimethyl-5-(4-(1-methyl-1H-1,2,3-triazol-4-yl)benzyl)benzamide]
4.8 | 106 | COc1c(C(=O)N[C@H]2CCCC[C@@H]2O)cc(Cc2ccc(-c3cn(C)nn3)cc2)c(C)c1C (single isomer, unassigned) [Example 10, N-(trans-2-hydroxycyclohexyl)-2-methoxy-3,4-dimethyl-5-(4-(1-methyl-1H-1,2,3-triazol-4-yl)benzyl)benzamide]
37 | 97 | COc1c(C(=O)N[C@@H]2CCCC[C@H]2O)cc(Cc2ccc(-c3cn(C)nn3)cc2)c(C)c1C (single isomer, unassigned) [Example 11, N-(trans-2-hydroxycyclohexyl)-2-methoxy-3,4-dimethyl-5-(4-(1-methyl-1H-1,2,3-triazol-4-yl)benzyl)benzamide]
19 | 103 | Cc1c(Cc2ccc(-n3cccn3)cc2)cc(C(=O)N[C@H]2COCC[C@@H]2O)c(F)c1C [Example 12, 2-fluoro-N-((3S,4S)-4-hydroxytetrahydro-2H-pyran-3-yl)-3,4-dimethyl-5-(4-(1H-pyrazol-1-yl)benzyl)benzamide]
8.6 | 98 | COc1c(C(=O)N[C@H]2CCCC[C@@H]2O)cc(Cc2ccc(-n3ccnn3)cc2)c(C)c1C [Example 14, N-((1S,2S)-2-hydroxycyclohexyl)-2-methoxy-3,4-dimethyl-5-(4-(1H-1,2,3-triazol-1-yl)benzyl)benzamide]
84 | 93 | Cc1c(Cc2ccc(-n3cccn3)nc2)cc(C(=O)N[C@H]2CCC[C@@H]2O)c(F)c1C [Example 19, 2-fluoro-N-((1S,2S)-2-hydroxycyclopentyl)-3,4-dimethyl-5-((6-(1H-pyrazol-1-yl)pyridin-3-yl)methyl)benzamide]
31 | 97 | Cc1c(Cc2ccc(-n3cccn3)nc2)cc(C(=O)N[C@H]2CCCC[C@@H]2O)c(F)c1C [Example 20, 2-fluoro-N-((1S,2S)-2-hydroxycyclohexyl)-3,4-dimethyl-5-((6-(1H-pyrazol-1-yl)pyridin-3-yl)methyl)benzamide]
55 | 95 | COc1c(C(=O)N[C@H]2CCC[C@@H]2O)cc(Cc2ccc(-c3ccn(C)n3)nc2)c(C)c1C [Example 22, N-((1S,2S)-2-hydroxycyclopentyl)-2-methoxy-3,4-dimethyl-5-((6-(1-methyl-1H-pyrazol-3-yl)pyridin-3-yl)methyl)benzamide]
33 | 97 | Cc1c(Cc2ccc(-n3cccn3)cc2)cc(C(=O)N[C@H]2COCC[C@@H]2O)c(F)c1F [Example 25, 1,5-anhydro-2,4-dideoxy-2-((2,3-difluoro-4-methyl-5-(4-(1H-pyrazol-1-yl)benzyl)benzoyl)amino)-L-threo-pentitol]
39 | 100 | COc1c(C(=O)N[C@H]2COCC[C@@H]2O)cc(Cc2ccc(-n3cccn3)cc2)c(C)c1C [Example 27, 1,5-anhydro-2,4-dideoxy-2-((2-methoxy-3,4-dimethyl-5-(4-(1H-pyrazol-1-yl)benzyl)benzoyl)amino)-L-threo-pentitol]
